Data taken from EPA's ToxRefDB 2.

Tests used:
rat [1] = settings: Multigenerational reproductive toxicity study, sprague dawley, Oral, Gavage/Intubation, dose end: 2 generation
dog = settings: Chronic toxicity; beagle; Oral; Feed; dose end: 52 week; group: systemic; systemic / in life observation / body weight / body weight + systemic / in life observation / food consumption / food consumption + systemic…
rat [2] = settings: Subchronic oral toxicity in rodents, Feed, dose end: 13 week, group: systemic, systemic / clinical chemistry / aspartate aminotransferase (ast/sgot) / aspartate aminotransferase (ast/sgot) + systemic / clinical …
rat [3] = settings: Chronic toxicity, fischer, Oral, [Not Specified], dose end: 24 month, group: systemic
mouse = settings: Multigenerational reproductive toxicity study, cd1, Oral, Feed, dose end: 1 generation
rat [4] = settings: Multigenerational reproductive toxicity study, sprague dawley, Oral, Feed, dose end: 2 generation
rabbit = settings: Prenatal developmental toxicity study, dutch, Oral, Gavage/Intubation, dose end: 19 GD
rat [5] = settings: Multigenerational reproductive toxicity study, sprague dawley, Oral, Feed, dose end: 2 generation; remark: listed apart in the source
[6] = group: offspring, systemic / organ weight / thymus / absolute
[7] = group: offspring, systemic / organ weight / thymus / absolute + systemic / organ weight / thymus / relative to body weight
[8] = group: parental, systemic / organ weight / liver / absolute + systemic / organ weight / liver / relative to body weight
[9] = group: parental, systemic / organ weight / liver / absolute + systemic / organ weight / liver / relative to body weight + systemic / in life observation / …
[10] = systemic / pathology microscopic / testes / atrophy
[11] = group: parental, systemic / in life observation / body weight / body weight + systemic / organ weight / kidney / nos + systemic / organ weight / liver / nos…
[12] = group: reproductive, reproductive / reproductive performance / fertility / fertility + reproductive / offspring survival early / live fetuses / live fetuses
[13] = group: reproductive, reproductive / reproductive performance / fertility / fertility + reproductive / offspring survival early / live fetuses / live fetuses + …
[14] = group: offspring, systemic / in life observation / body weight / offspring (pup) weight
[15] = group: parental, systemic / organ weight / ovary / nos
[16] = group: reproductive, reproductive / reproductive performance / gestational length / gestational length
[17] = group: cholinesterase, cholinesterase / cholinesterase / cholinesterase / brain cholinesterase (che) + cholinesterase / cholinesterase / cholinesterase / …
[18] = group: developmental, developmental / developmental malformation / bone / incomplete ossification
[19] = group: maternal, reproductive / reproductive performance / resorptions / resorptions + systemic / in life observation / clinical signs / abnormal feces
[20] = group: offspring, developmental / offspring survival late / [other] / [other] + systemic / in life observation / body weight / offspring (pup) weight
[21] = group: parental, systemic / in life observation / body weight / body weight + systemic / organ weight / ovary / nos
[22] = group: parental, systemic / in life observation / body weight / body weight + systemic / organ weight / ovary / nos + systemic / pathology microscopic / …
[23] = group: reproductive, reproductive / reproductive performance / fertility / fertility
[24] = group: reproductive, reproductive / reproductive performance / fertility / fertility + reproductive / reproductive performance / estrous cycle / corpora lutea

For CCCCc1ccccc1 [Butylbenzene], which NEL (rat [1]; [6]) is on record?
Its NEL is 100 mg/kg/day.

What about the NOAEL (rat [1]; [6]) of the same compound?
Its NOAEL is 100 mg/kg/day.

What about the LEL (rat [1]; [7]) of the same compound?
The LEL was 300 mg/kg/day.

And the LOAEL (rat [1]; [7])?
The LOAEL was 300 mg/kg/day.

And the LEL (rat [1]; [8])?
Its LEL is 30 mg/kg/day.

And the NEL (rat [1]; [8])?
The NEL was < 30 mg/kg/day.

What about the LOAEL (rat [1]; [9]) of the same compound?
Its LOAEL is 100 mg/kg/day.

And the NOAEL (rat [1]; [9])?
Its NOAEL is 30 mg/kg/day.

Which LEL (dog) does the source give for Cc1ccccc1CO[C@@H]1C[C@@]2(C(C)C)CC[C@]1(C)O2 [Cinmethylin] here?
The LEL was 75 mg/kg/day.

And the LOAEL (dog)?
Its LOAEL is 75 mg/kg/day.

What about the NEL (dog) of the same compound?
Its NEL is 7.5 mg/kg/day.

What about the NOAEL (dog) of the same compound?
The NOAEL was 7.5 mg/kg/day.

And the LEL (rat [2])?
Its LEL is 1.5 mg/kg/day.

What about the LOAEL (rat [2]) of the same compound?
Its LOAEL is > 50 mg/kg/day.

What about the NEL (rat [2]) of the same compound?
The NEL was < 1.5 mg/kg/day.

And the NOAEL (rat [2])?
Its NOAEL is ≥ 50 mg/kg/day.

What about the LOAEL (rat [3]; systemic / pathology microscopic / kidney / nephropathy) of the same compound?
The LOAEL was 150 mg/kg/day.

And the NOAEL (rat [3]; systemic / pathology microscopic / kidney / nephropathy + systemic / organ weight / liver / relative to body weight + systemic / organ …)?
Its NOAEL is 5 mg/kg/day.

What about the LEL (rat [3]; [10]) of the same compound?
Its LEL is 1.5 mg/kg/day.

What about the NEL (rat [3]; [10]) of the same compound?
Its NEL is < 1.5 mg/kg/day.

With CCCCCOC(=O)c1ccccc1C(=O)OCCCCC [Dipentyl phthalate] as the compound, how does the NEL (mouse; group: parental, systemic / in life observation / body weight / body weight + systemic / organ weight / kidney / nos + systemic / organ weight / liver / nos) read?
Its NEL is 2.16 mg/kg/day.

What about the LEL (mouse; [11]) of the same compound?
Its LEL is 4.79 mg/kg/day.

What about the LOAEL (mouse; [11]) of the same compound?
The LOAEL was > 4.79 mg/kg/day.

And the NOAEL (mouse; [11])?
Its NOAEL is ≥ 4.79 mg/kg/day.

What about the LEL (mouse; [12]) of the same compound?
The LEL was 0.76 mg/kg/day.

What about the NEL (mouse; [12]) of the same compound?
Its NEL is < 0.76 mg/kg/day.

And the LOAEL (mouse; [13])?
The LOAEL was > 4.79 mg/kg/day.

What about the NOAEL (mouse; [13]) of the same compound?
The NOAEL was ≥ 4.79 mg/kg/day.

Which LEL (rat [4]; [14]) does the source give for CC1(C)CCC(Cc2ccc(Cl)cc2)C1(O)Cn1cncn1 (centres undefined) [Metconazole] here?
Its LEL is 32 mg/kg/day.

And the LOAEL (rat [4]; [14])?
Its LOAEL is 32 mg/kg/day.

And the NEL (rat [4]; [14])?
Its NEL is 8 mg/kg/day.

What about the NOAEL (rat [4]; [14]) of the same compound?
Its NOAEL is 8 mg/kg/day.

And the LEL (rat [4]; [15])?
The LEL was 32 mg/kg/day.

What about the LOAEL (rat [4]; [15]) of the same compound?
The LOAEL was 32 mg/kg/day.

And the NEL (rat [4]; [15])?
Its NEL is 8 mg/kg/day.

And the NOAEL (rat [4]; [15])?
Its NOAEL is 8 mg/kg/day.

What about the LEL (rat [4]; [16]) of the same compound?
Its LEL is 32 mg/kg/day.

What about the LOAEL (rat [4]; [16]) of the same compound?
Its LOAEL is > 32 mg/kg/day.

What about the NEL (rat [4]; [16]) of the same compound?
The NEL was 8 mg/kg/day.

What about the NOAEL (rat [4]; [16]) of the same compound?
The NOAEL was ≥ 32 mg/kg/day.

Which results are given for CCS(=O)CCSP(=O)(OC)OC (centres undefined) [Oxydemeton-methyl]?
LEL (rabbit; [17]): 1.6 mg/kg/day; LOAEL (rabbit; [17]): 1.6 mg/kg/day; NEL (rabbit; [17]): 0.4 mg/kg/day; NOAEL (rabbit; [17]): 0.4 mg/kg/day; LEL (rabbit; [18]): 0.1 mg/kg/day; LOAEL (rabbit; [18]): 0.1 mg/kg/day; NEL (rabbit; [18]): < 0.1 mg/kg/day; NOAEL (rabbit; [18]): < 0.1 mg/kg/day; LOAEL (rabbit; [19]): > 1.6 mg/kg/day; NEL (rabbit; [19]): 0.1 mg/kg/day; NOAEL (rabbit; [19]): ≥ 1.6 mg/kg/day; LEL (rabbit; group: maternal, systemic / in life observation / clinical signs / abnormal feces): 0.4 mg/kg/day; LEL (rat [5]; [20]): 2.1 mg/kg/day; LOAEL (rat [5]; [20]): 2.1 mg/kg/day; NEL (rat [5]; [20]): 0.38 mg/kg/day; NOAEL (rat [5]; [20]): 0.38 mg/kg/day; NEL (rat [5]; [21]): 0.38 mg/kg/day; NOAEL (rat [5]; [21]): 0.38 mg/kg/day; LEL (rat [5]; [22]): 2.1 mg/kg/day; LOAEL (rat [5]; [22]): 2.1 mg/kg/day; NEL (rat [5]; [23]): 0.38 mg/kg/day; NOAEL (rat [5]; [23]): 0.38 mg/kg/day; LEL (rat [5]; [24]): 2.1 mg/kg/day; LOAEL (rat [5]; [24]): 2.1 mg/kg/day
